Measured values taken from ChEMBL document CHEMBL1156131, “Discovery of pyrazol-3-ylamino pyrazines as novel JAK2 inhibitors” (Bioorg Med Chem Lett, 2009).

Columns and labels:
[1] = target: T1, Tyrosine-protein kinase JAK2 (Homo sapiens, UniProt O60674); assay: Inhibition of JAK2 using 2 mM ATP as a substrate
[2] = target: T2, Tyrosine-protein kinase JAK3 (Homo sapiens, UniProt P52333); assay: Inhibition of JAK3 using 5 mM ATP as a substrate
T2 sequence (P52333 whole entry): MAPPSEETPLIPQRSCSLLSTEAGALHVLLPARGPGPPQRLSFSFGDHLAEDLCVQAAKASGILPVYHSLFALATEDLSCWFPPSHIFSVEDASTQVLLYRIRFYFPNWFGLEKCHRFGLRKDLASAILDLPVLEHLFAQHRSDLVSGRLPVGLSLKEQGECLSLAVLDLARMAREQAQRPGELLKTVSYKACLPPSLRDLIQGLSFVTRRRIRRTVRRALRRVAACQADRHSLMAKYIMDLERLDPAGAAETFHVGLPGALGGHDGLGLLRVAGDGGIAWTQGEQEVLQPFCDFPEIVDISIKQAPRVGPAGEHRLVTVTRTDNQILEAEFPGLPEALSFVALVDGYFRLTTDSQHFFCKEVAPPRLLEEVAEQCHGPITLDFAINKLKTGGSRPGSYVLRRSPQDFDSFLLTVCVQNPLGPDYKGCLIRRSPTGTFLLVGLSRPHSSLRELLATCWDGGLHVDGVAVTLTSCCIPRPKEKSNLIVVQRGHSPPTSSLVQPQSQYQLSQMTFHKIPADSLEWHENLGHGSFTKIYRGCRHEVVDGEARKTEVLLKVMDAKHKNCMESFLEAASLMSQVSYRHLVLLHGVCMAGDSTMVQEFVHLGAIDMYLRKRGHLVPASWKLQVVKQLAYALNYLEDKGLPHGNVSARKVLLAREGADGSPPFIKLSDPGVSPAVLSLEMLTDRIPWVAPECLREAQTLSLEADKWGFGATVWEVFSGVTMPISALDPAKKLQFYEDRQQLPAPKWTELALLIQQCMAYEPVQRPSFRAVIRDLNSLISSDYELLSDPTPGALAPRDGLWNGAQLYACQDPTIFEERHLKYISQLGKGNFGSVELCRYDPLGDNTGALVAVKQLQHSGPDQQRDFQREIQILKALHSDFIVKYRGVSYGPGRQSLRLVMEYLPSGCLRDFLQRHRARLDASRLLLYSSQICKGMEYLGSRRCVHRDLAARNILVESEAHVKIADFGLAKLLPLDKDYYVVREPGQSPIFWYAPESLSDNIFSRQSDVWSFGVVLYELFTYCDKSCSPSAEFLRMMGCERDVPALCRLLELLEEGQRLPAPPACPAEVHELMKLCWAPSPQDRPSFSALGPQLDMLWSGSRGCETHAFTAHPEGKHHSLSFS

[3] = target: T1, Tyrosine-protein kinase JAK2; assay: Inhibition of JAK2 using 5 mM ATP as a substrate
[4] = target: Cyclin-dependent kinase 2 (Homo sapiens, UniProt P24941); assay: Inhibition of CDK2
[5] = target: T1, Tyrosine-protein kinase JAK2; assay: Inhibition of Tel-fused JAK2
[6] = Clearance in Beagle dog at 10 mg/kg, po and 3 mg/kg, iv; type: ADME, organism-based, Canis lupus familiaris; details: in vivo
[7] = Volume of distribution at steady state in Beagle dog at 10 mg/kg, po and 3 mg/kg, iv; type: ADME, organism-based, Canis lupus familiaris; details: in vivo, read-out: Vdss
Aurora kinase B = Aurora kinase B (Homo sapiens, UniProt Q96GD4); assay: Inhibition of Aurora B
Mus musculus [8] = assay: Ex vivo inhibition of STAT5 phosphorylation in NCr mouse implanted with Tel-fused JAK expressing mouse BAF3 cells at 5 mg/kg, po after 2 hrs; type: functional; details: BaF3, 2 h
Mus musculus [9] = assay: Ex vivo inhibition of STAT5 phosphorylation in NCr mouse implanted with Tel-fused JAK expressing mouse BAF3 cells at 25 mg/kg, po after 2 hrs; type: functional; details: BaF3, 2 h
[10] = target: T3, Tyrosine-protein kinase JAK3 (Homo sapiens) (UniProt P52333); assay: Inhibition of Tel-fused JAK3
T3 sequence (whole entry): T2 sequence (P52333 whole entry)

Mus musculus [11] = assay: Ex vivo inhibition of STAT5 phosphorylation in NCr mouse implanted with Tel-fused JAK expressing mouse BAF3 cells at 10 mg/kg, po after 2 hrs; type: functional; details: BaF3, 2 h
[12] = Clearance in Wistar rat at 10 mg/kg, po and 3 mg/kg, iv; type: ADME, organism-based; details: in vivo
[13] = target: High affinity nerve growth factor receptor (Homo sapiens, UniProt P04629); assay: Inhibition of TRKA
[14] = Half life Wistar rat at 10 mg/kg, po and 3 mg/kg, iv; type: ADME, organism-based; details: in vivo
[15] = Half life Beagle dog at 10 mg/kg, po and 3 mg/kg, iv; type: ADME, organism-based, Canis lupus familiaris; details: in vivo
[16] = Volume of distribution at steady state in Wistar rat at 10 mg/kg, po and 3 mg/kg, iv; type: ADME, organism-based; details: in vivo, read-out: Vdss
Mus musculus [17] = assay: Ex vivo inhibition of STAT5 phosphorylation in NCr mouse implanted with Tel-fused JAK expressing mouse BAF3 cells at 25 mg/kg, po after 4 hrs; type: functional; details: BaF3, 4 h

T1 sequence (O60674 whole entry): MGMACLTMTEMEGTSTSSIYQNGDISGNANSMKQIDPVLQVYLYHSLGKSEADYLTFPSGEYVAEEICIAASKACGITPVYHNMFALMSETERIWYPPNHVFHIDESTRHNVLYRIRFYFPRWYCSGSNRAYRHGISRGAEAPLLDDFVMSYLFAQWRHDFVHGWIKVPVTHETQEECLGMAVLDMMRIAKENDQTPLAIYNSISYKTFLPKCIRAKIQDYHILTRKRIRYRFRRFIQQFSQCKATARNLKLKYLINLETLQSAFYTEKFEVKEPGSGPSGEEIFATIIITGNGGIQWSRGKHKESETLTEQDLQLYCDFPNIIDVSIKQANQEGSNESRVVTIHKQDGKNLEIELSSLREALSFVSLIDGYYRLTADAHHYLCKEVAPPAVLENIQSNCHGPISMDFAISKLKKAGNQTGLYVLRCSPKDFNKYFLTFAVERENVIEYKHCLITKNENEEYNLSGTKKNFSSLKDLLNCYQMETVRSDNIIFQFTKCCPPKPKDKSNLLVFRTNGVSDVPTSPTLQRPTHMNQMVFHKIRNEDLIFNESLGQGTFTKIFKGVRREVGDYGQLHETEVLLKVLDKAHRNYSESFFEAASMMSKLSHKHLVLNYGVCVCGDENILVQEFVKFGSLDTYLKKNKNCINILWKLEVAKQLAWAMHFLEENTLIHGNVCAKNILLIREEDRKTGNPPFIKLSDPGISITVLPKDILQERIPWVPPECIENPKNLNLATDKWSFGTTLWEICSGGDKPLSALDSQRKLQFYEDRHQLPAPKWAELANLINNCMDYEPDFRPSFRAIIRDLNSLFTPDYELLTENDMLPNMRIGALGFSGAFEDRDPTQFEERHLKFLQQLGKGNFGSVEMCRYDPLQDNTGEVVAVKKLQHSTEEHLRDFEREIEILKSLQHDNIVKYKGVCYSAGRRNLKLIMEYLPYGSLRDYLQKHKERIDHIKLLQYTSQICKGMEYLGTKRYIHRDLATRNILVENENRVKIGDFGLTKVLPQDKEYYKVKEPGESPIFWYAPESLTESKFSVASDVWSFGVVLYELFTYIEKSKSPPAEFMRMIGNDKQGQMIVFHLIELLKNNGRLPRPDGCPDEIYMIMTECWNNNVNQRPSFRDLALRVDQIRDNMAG
High affinity nerve growth factor receptor, sequence (P04629 whole entry): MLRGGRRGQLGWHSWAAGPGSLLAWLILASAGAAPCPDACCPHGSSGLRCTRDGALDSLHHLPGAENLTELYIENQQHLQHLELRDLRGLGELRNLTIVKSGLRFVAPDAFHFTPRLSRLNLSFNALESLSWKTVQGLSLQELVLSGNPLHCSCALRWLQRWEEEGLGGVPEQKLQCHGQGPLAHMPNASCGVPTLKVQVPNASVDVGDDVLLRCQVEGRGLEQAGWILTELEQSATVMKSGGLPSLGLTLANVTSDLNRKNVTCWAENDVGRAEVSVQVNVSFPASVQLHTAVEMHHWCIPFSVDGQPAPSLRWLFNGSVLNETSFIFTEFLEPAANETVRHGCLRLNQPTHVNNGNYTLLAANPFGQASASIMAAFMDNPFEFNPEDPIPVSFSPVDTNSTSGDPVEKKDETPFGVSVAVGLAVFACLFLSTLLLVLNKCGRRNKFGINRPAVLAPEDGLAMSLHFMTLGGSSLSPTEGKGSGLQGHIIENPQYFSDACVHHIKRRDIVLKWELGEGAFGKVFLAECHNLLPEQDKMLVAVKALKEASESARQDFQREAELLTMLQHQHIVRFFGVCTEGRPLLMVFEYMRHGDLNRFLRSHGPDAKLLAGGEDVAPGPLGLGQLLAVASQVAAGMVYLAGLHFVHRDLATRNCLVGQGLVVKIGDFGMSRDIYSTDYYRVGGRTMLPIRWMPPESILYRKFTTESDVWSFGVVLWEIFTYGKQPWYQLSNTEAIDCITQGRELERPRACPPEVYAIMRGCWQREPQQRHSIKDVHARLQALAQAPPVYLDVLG
Aurora kinase B, sequence (Q96GD4 whole entry, the tested form may be a part): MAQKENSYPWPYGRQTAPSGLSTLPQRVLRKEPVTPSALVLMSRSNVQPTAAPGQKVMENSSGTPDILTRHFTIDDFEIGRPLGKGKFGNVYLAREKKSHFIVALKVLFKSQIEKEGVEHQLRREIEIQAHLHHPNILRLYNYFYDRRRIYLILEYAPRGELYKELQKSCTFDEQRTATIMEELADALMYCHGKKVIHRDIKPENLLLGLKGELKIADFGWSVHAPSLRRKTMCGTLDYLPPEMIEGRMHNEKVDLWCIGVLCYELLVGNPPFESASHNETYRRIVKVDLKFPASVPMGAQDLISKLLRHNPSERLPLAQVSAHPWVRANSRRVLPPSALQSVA

SMILES | IC50 [1] | IC50 [2] | IC50 [3] | also measured
CC(C)Oc1cc(Nc2cncc(N[C@@H](C)c3ccc(F)cn3)n2)[nH]n1 | 0.01 µM | – | 0.421 µM | –
Cc1cc(Nc2nc(NC(C)c3ccc(F)cn3)c(C#N)nc2C)n[nH]1 (stereo unspecified) | < 0.003 µM | – | 0.047 µM | –
Cc1cc(Nc2cnc(C#N)c(N[C@@H](C)c3ccc(F)cn3)n2)n[nH]1 | < 0.003 µM | 5.17 µM | 0.003 µM | IC50 (Aurora kinase B): 0.68 µM; inhibition in vivo at 5 mg/kg (Mus musculus [8]): > 80%; inhibition in vivo at 25 mg/kg (Mus musculus [9]): > 90%; GI50 [10]: 1.1 µM; inhibition in vivo at 10 mg/kg (Mus musculus [11]): > 90%; clearance [12]: 1.5 L/h/kg; IC50 [13]: 0.67 µM; half-life [14]: 1.2 h; IC50 [4]: 0.03 µM; inhibition in vivo at 25 mg/kg (Mus musculus [17]): > 90%; GI50 [5]: 0.06 µM; Vd [16]: 2.2 L/kg
COc1cc(Nc2cncc(N[C@@H](C)c3ccc(F)cn3)n2)[nH]n1 | 0.003 µM | – | 0.008 µM | –
Cc1cc(Nc2nc(O[C@@H](C)c3ccc(F)cn3)c(C#N)nc2C)[nH]n1 | 0.004 µM | > 30 µM | 0.142 µM | –
Cc1cc(Nc2nc(N[C@H](C)c3ncc(F)cn3)c(C#N)nc2C)[nH]n1 | 0.05 µM | > 30 µM | 10.4 µM | –
Cc1cc(Nc2nc(N[C@@H](C)c3ccc(F)cn3)cnc2C)[nH]n1 | < 0.003 µM | – | 0.018 µM | –
Cc1cc(Nc2nc(O[C@H](C)c3ccc(F)cn3)c(C#N)nc2C)[nH]n1 | 0.108 µM | > 30 µM | 4.67 µM | –
Cc1cc(Nc2cnc(C#N)c(N[C@@H](C)c3ncc(F)cn3)n2)n[nH]1 | < 0.003 µM | – | 0.006 µM | IC50 [4]: 0.05 µM; GI50 [5]: 0.16 µM
Cc1cc(Nc2nc(N[C@H](C)c3ccc(F)cn3)c(C#N)nc2C)n[nH]1 | 0.075 µM | – | 0.907 µM | –
Cc1cc(Nc2cncc(N[C@@H](C)c3ccc(F)cn3)n2)[nH]n1 | < 0.003 µM | 11.7 µM | 0.003 µM | –

Further lines, with some results ahead:

IC50 [1] | IC50 [2] | IC50 [3] | SMILES | also measured
< 0.003 µM | 13.7 µM | 0.003 µM | Cc1cc(Nc2cncc(N[C@@H](C)c3ncc(F)cn3)n2)n[nH]1 | –
< 0.003 µM | – | 0.011 µM | Cc1cc(Nc2nc(N[C@@H](C)c3ccc(F)cn3)c(C#N)nc2C)n[nH]1 | IC50 [4]: 0.46 µM; GI50 [5]: 0.11 µM
< 0.003 µM | 26.9 µM | 0.025 µM | C[C@H](Nc1nc(Nc2cc(C3CC3)n[nH]2)cnc1C#N)c1ccc(F)cn1 | –
< 0.003 µM | 12.8 µM | 0.005 µM | Cc1cc(Nc2cnc(C#N)c(NC(C)c3ccc(F)cn3)n2)n[nH]1 (stereo unspecified) | –
< 0.003 µM | 26.5 µM | 0.087 µM | Cc1cc(Nc2nc(N[C@@H](C)c3ncc(F)cn3)c(C#N)nc2C)n[nH]1 | clearance [6]: < 0.12 L/h/kg; Vd [7]: 1.1 L/kg; IC50 (Aurora kinase B): 0.85 µM; inhibition in vivo at 5 mg/kg (Mus musculus [8]): > 80%; inhibition in vivo at 25 mg/kg (Mus musculus [9]): > 95%; GI50 [10]: 7.4 µM; inhibition in vivo at 10 mg/kg (Mus musculus [11]): > 90%; clearance [12]: 0.78 L/h/kg; IC50 [13]: 1.48 µM; half-life [14]: 1.6 h; half-life [15]: 7 h; IC50 [4]: 0.41 µM; GI50 [5]: 0.22 µM; Vd [16]: 1.6 L/kg
